These results are taken from PubChem BioAssay (NCI).

Among the test systems are M14 melanoma; HOP-62 NSCLC; OVCAR-8 ovarian; UACC-62 melanoma; NCI-H226 lung; UACC-257 melanoma; ACHN renal; NCI-H460 lung.
What all share (experiment): NCI-60 cell line screen, 48 h

Structures are written as SMILES. Where “and” joins values, the source holds several entries; their conditions need not be identical. Equal entries are not always repeated.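 Cells were grown in 96-well plates and exposed to each compound for 48 hours at five concentrations; endpoints were interpolated linearly between bracketing concentrations, or set to the highest concentration if not reached. At the GI50, growth is halved. TGI denotes the concentration required for complete inhibition of growth.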 Some results are limits rather than exact numbers.

With `c1ccc([As]=[As]c2ccccc2)cc1` (stereo not given), the GI50 with M14 melanoma is 1.55 µM; in the experiment on HOP-62 NSCLC it was 1.78 µM; in the experiment with OVCAR-8 ovarian it was 1.44 µM; with UACC-62 melanoma, 1.12 µM; in the experiment on NCI-H226 lung it was 1.46 µM; in the experiment with UACC-257 melanoma, 1.28 µM. Further, the values for the GI50 with ACHN renal and in the experiment with NCI-H460 lung were 1.28 µM and 2.01 µM, respectively. Further, the TGI with M14 melanoma came to 4.17 µM; in the experiment with HOP-62 NSCLC, 3.33 µM; in the experiment with OVCAR-8 ovarian, 3.69 µM; in the experiment on UACC-62 melanoma, 2.41 µM; with NCI-H226 lung, 4.15 µM; with UACC-257 melanoma it was 2.88 µM. The figures for the TGI with ACHN renal and in the experiment with NCI-H460 lung were 2.65 µM and 4.15 µM, respectively.

Consider `CN(C)c1ccc(C(c2ccc(Cl)cc2)c2ccc(N(C)C)cc2)cc1`, for which the TGI in the experiment on M14 melanoma, with HOP-62 NSCLC, in the experiment on OVCAR-8 ovarian, with UACC-62 melanoma, in the experiment on UACC-257 melanoma and in the experiment on ACHN renal was greater than 100 µM throughout. Further, the TGI with NCI-H460 lung was greater than 100 µM.

On to `CNS(=O)(=O)OCC1OC(n2cnc3c(N)ncnc32)C(O)C1O` (stereo not given), for which the GI50 in the experiment on M14 melanoma, in the experiment on HOP-62 NSCLC, in the experiment on OVCAR-8 ovarian, in the experiment on UACC-62 melanoma, with NCI-H226 lung and in the experiment on UACC-257 melanoma was greater than 100 µM each time. In addition, the GI50 with ACHN renal and with NCI-H460 lung was greater than 100 µM each time. The TGI in the experiment with M14 melanoma, in the experiment with HOP-62 NSCLC, with OVCAR-8 ovarian, with UACC-62 melanoma, with NCI-H226 lung and in the experiment with UACC-257 melanoma was greater than 100 µM throughout. Also, the TGI with ACHN renal and with NCI-H460 lung was greater than 100 µM each time.

Turning to `COc1ccc(N(/C=C/C(=O)C(F)(F)F)CC(=O)c2ccc(Cl)cc2)cc1`, the GI50 in the experiment with HOP-62 NSCLC was 16.6 µM; with OVCAR-8 ovarian it was 13.5 µM; in the experiment on UACC-62 melanoma, 8.34 µM; with NCI-H226 lung it was 16.5 µM; in the experiment with UACC-257 melanoma, 18.4 µM; with ACHN renal, 14.5 µM. In the experiment with NCI-H460 lung, the GI50 was 13.4 µM. For the same compound, the TGI in the experiment with HOP-62 NSCLC amounted to 35.8 µM; in the experiment on OVCAR-8 ovarian, 40 µM; in the experiment with UACC-62 melanoma, 20.7 µM; in the experiment on NCI-H226 lung it was 31.6 µM; with UACC-257 melanoma, 37.7 µM; with ACHN renal, 27.6 µM. Besides, the TGI with NCI-H460 lung stood at 32.8 µM.

Take `CN1CCN(CCOc2cc(OC3CCOCC3)c3c(Nc4c(Cl)ccc5c4OCO5)ncnc3c2)CC1`: the GI50 in the experiment with M14 melanoma is 15.4 µM and > 10 µM; in the experiment on HOP-62 NSCLC, 5.48 µM and 8.53 µM; in the experiment on OVCAR-8 ovarian, 8.55 µM and 8.64 µM; with UACC-62 melanoma, 14.8 µM; in the experiment on NCI-H226 lung it was 15.7 µM and > 10 µM; in the experiment with UACC-257 melanoma, 15.1 µM and > 10 µM. In addition, the GI50 with ACHN renal was 0.348 µM and 0.395 µM; in the experiment on NCI-H460 lung it was 18.6 µM and > 10 µM. The TGI in the experiment with M14 melanoma is 31.3 µM and > 10 µM; with HOP-62 NSCLC, 26.7 µM and > 10 µM; in the experiment with OVCAR-8 ovarian it was 34 µM and > 10 µM; with UACC-62 melanoma, 28.6 µM; in the experiment on NCI-H226 lung, 38.9 µM and > 10 µM; with UACC-257 melanoma it was 30.2 µM and > 10 µM. In addition, the TGI with ACHN renal is 14 µM and > 10 µM; in the experiment on NCI-H460 lung it was 65.6 µM and > 10 µM.

For `CCN1C[C@]2(COC)[C@H](O)C[C@H](OC)[C@]34C1[C@H]([C@H](OC)[C@H]23)[C@]1(OC(C)=O)[C@H]2[C@@H](OC(=O)c3ccccc3)[C@](O)(C[C@H]24)[C@@H](OC)[C@@H]1O`, the TGI in the experiment on M14 melanoma, with OVCAR-8 ovarian, with UACC-62 melanoma, in the experiment on NCI-H226 lung, in the experiment on UACC-257 melanoma and with ACHN renal was greater than 100 µM in each case. In the experiment on NCI-H460 lung, this compound returned a TGI greater than 100 µM.

On to `CCCCCCCC(=O)OCC(=O)[C@]1(O)Cc2c(O)c3c(c(O)c2[C@@H](OC2CC(N)C(O)C(C)O2)C1)C(=O)c1c(OC)cccc1C3=O` (stereo not given in full), for which the GI50 in the experiment on M14 melanoma is 0.0866 µM; in the experiment with HOP-62 NSCLC it was 0.162 µM; in the experiment with UACC-62 melanoma, 0.033 µM. The TGI worked out at 0.634 µM with M14 melanoma, 1.74 µM with HOP-62 NSCLC, 0.494 µM with UACC-62 melanoma and 0.196 µM in the experiment with NCI-H460 lung.

As for `CN(C)c1ccc(/C=c2/c3ccccc3n3c2c2cc(F)ccc2[n+]3C)cc1`, the GI50 in the experiment on M14 melanoma was 4.02 µM; with HOP-62 NSCLC it was 8.6 µM; in the experiment on OVCAR-8 ovarian, 3.83 µM; with UACC-257 melanoma, 4.31 µM; in the experiment on ACHN renal it was 34.6 µM; in the experiment on NCI-H460 lung, 4.72 µM. Besides, the TGI in the experiment with M14 melanoma was 22.9 µM; in the experiment on HOP-62 NSCLC, 26.4 µM; in the experiment with OVCAR-8 ovarian, 16.4 µM; with UACC-62 melanoma, 6.12 µM; in the experiment on UACC-257 melanoma it was 11.8 µM; with ACHN renal, greater than 100 µM. This compound had a TGI with NCI-H460 lung of 26.6 µM.

`NNC(=O)c1ccc(OCc2nc3ccccc3[nH]2)cc1`: the TGI in the experiment on M14 melanoma, in the experiment on OVCAR-8 ovarian, with UACC-62 melanoma, with NCI-H226 lung, with UACC-257 melanoma and in the experiment with ACHN renal was greater than 100 µM each time. The TGI in the experiment with NCI-H460 lung was greater than 100 µM.

With `COc1cc(C2C3=C(COC3=O)N(CCO)c3cc4c(cc32)OCO4)cc(OC)c1O` (stereo not given), the GI50 in the experiment with M14 melanoma was 1.49 µM; in the experiment with HOP-62 NSCLC, 2.35 µM; in the experiment on OVCAR-8 ovarian, 3.17 µM; in the experiment on NCI-H226 lung, 3.72 µM; in the experiment on ACHN renal it was greater than 13.5 µM; in the experiment with NCI-H460 lung, 1.69 µM. Besides, the TGI was 7.64 µM in the experiment with M14 melanoma; greater than 50 µM in the experiment on HOP-62 NSCLC; greater than 50 µM in the experiment on OVCAR-8 ovarian; greater than 50 µM in the experiment with UACC-62 melanoma; greater than 50 µM in the experiment with NCI-H226 lung; greater than 50 µM in the experiment on ACHN renal. The compound also had a TGI with NCI-H460 lung greater than 15.9 µM.

Turning to `CC1=C(C)C2(O)C(=C(C)C1=O)/C(=C(/O)c1ccccc1)c1nc3ccccc3n12` (stereo not given), the GI50 in the experiment on M14 melanoma was 23.5 µM; with HOP-62 NSCLC, 21.9 µM; in the experiment with OVCAR-8 ovarian, 18 µM; with NCI-H226 lung, 23.6 µM; with UACC-257 melanoma it was 16.5 µM; with ACHN renal, 16.4 µM. For the same compound, the GI50 in the experiment on NCI-H460 lung was 18.5 µM. Further, the TGI in the experiment with M14 melanoma amounted to 52.7 µM; in the experiment on HOP-62 NSCLC it was 48.7 µM; with OVCAR-8 ovarian, 41 µM; in the experiment on NCI-H226 lung it was 58.1 µM; in the experiment with UACC-257 melanoma, 33.4 µM; in the experiment with ACHN renal it was 34.4 µM. Moreover, the TGI in the experiment with NCI-H460 lung was 50.8 µM.

For `O=C1c2ccccc2C(=O)c2c(NCC3CO3)ccc(NCC3CO3)c21` (stereo not given), the TGI with M14 melanoma is 2.57 µM; in the experiment on HOP-62 NSCLC, 6.96 µM; in the experiment with OVCAR-8 ovarian, 2.49 µM; in the experiment with NCI-H226 lung, 35.4 µM; with UACC-257 melanoma, 23.9 µM; in the experiment on ACHN renal it was 2.62 µM. The compound also gave a TGI with NCI-H460 lung greater than 53.9 µM.

As for `C=C(C)C(=O)O[C@@H]1C/C(C)=C\[C@H](OC(C)=O)C[C@](C)(O)/C=C2/OC(=O)C(COC(C)=O)=C21`, the TGI in the experiment on HOP-62 NSCLC was greater than 100 µM; with OVCAR-8 ovarian, 2.75 µM; in the experiment on UACC-62 melanoma it was 2.1 µM; with NCI-H226 lung, 6.17 µM; in the experiment on UACC-257 melanoma it was 3.62 µM; in the experiment with ACHN renal, 1.87 µM. The same compound returned a TGI in the experiment with NCI-H460 lung of 2.35 µM.

On to `COc1cccc(/C(C)=N/NC(=O)CSc2nc3ccccc3c(=O)n2CCc2ccc(S(N)(=O)=O)cc2)c1`, for which the GI50 in the experiment on M14 melanoma is 2.58 µM; in the experiment on HOP-62 NSCLC it was 2.81 µM; in the experiment on OVCAR-8 ovarian, 2.32 µM; in the experiment with UACC-62 melanoma, 8.32 µM; with NCI-H226 lung, 3.29 µM; in the experiment with UACC-257 melanoma it was 10.9 µM. For the same compound, the GI50 in the experiment on ACHN renal was 3.19 µM. Further, the TGI in the experiment on M14 melanoma worked out at 73 µM; with HOP-62 NSCLC, 9.63 µM; with OVCAR-8 ovarian, 4.88 µM; with UACC-62 melanoma it was 33.5 µM; in the experiment with NCI-H226 lung, 13 µM; in the experiment on UACC-257 melanoma it was 36.7 µM. In the experiment with ACHN renal, the TGI was 15.9 µM.

With `Cc1ccc(-c2nc([P+](c3ccccc3)(c3ccccc3)c3ccccc3)c(Nc3ccccc3)o2)cc1`, the GI50 was 0.655 µM in the experiment with M14 melanoma; 1.05 µM in the experiment on OVCAR-8 ovarian; 0.63 µM in the experiment on UACC-62 melanoma; 0.831 µM with UACC-257 melanoma; 1.04 µM in the experiment with ACHN renal; 0.515 µM in the experiment with NCI-H460 lung. The TGI in the experiment with M14 melanoma is 2.08 µM; with OVCAR-8 ovarian it was 3.27 µM; with UACC-62 melanoma, 1.93 µM; with UACC-257 melanoma it was 2.7 µM; with ACHN renal it was 2.22 µM; in the experiment with NCI-H460 lung it was 1.8 µM.

For `CC12CCC3c4cc(Br)c(O)c(Br)c4CCC3C1CCC2O` (stereo not given), the TGI with M14 melanoma was greater than 100 µM; in the experiment with OVCAR-8 ovarian it was 42.1 µM; in the experiment on UACC-62 melanoma, 33.1 µM; with NCI-H226 lung, 34.5 µM; with UACC-257 melanoma, 35.8 µM; in the experiment with ACHN renal, 73.7 µM.

As to `COc1cc(-n2ccnc2)cc(OC)c1OC`, the GI50 in the experiment with HOP-62 NSCLC was 31.9 µM; with OVCAR-8 ovarian it was 56.8 µM; with UACC-62 melanoma it was 36 µM; in the experiment with NCI-H226 lung, 36.2 µM; in the experiment on UACC-257 melanoma, greater than 100 µM; in the experiment on ACHN renal, 34.6 µM. Moreover, the GI50 in the experiment on NCI-H460 lung is 41.6 µM. Besides, the TGI in the experiment with HOP-62 NSCLC, in the experiment with OVCAR-8 ovarian, in the experiment with UACC-62 melanoma, with NCI-H226 lung, in the experiment on UACC-257 melanoma and with ACHN renal was greater than 100 µM in each case. Also, the TGI with NCI-H460 lung was greater than 100 µM.
